This is an account of results in patent publication US9555055B2, “Use of albiflorin and metabolites thereof” (priority 2010, dated 2017).

Counter-ions that a name gives are not always drawn. Marks after values point to notes of the source that are not given here.

What all share (format): in vivo
One experiment relates to KM mice. The experiment is described as follows: Light-dark box test in mice (anti-anxiety test). The conditions noted are these: 2.5 mg/kg/d gavage, 7 days, test 1 h after administration on Day 8. The procedure:
Mice were randomly divided into 5 groups, i.e. high-dose group (14 mg/kg/d), medium-dose group (7 mg/kg/d), low-dose group (3.5 mg/kg/d) of Albiflorin, diazepam group (2.5 mg/kg/d), NS group. Gavage administration was performed once a day, for consecutive 7 days. During the administration, animals had free access to feed and water. The test was carried out 1 hour after the administration on Day 8.
Within the light-dark box (44 cm×21 cm×21 cm), the dark box accounts for one third thereof, with a cover on the top; while the light box accounts for two thirds thereof, providing illumination brightness; and there is a hole between the two boxes for animal to pass through. In the test, mice were placed in the center of the light box, back to the dark box, and then observed. The times of entering into the dark box followed by returning to the light box in mice were counted, as an index for the assession of anti-anxiety effect of a drug.

The subject of experiment [1] is ICR mice. As to the kind of experiment: Spontaneous actions in mice. The conditions noted are these: 14 days after administration. The protocol: (§1) 140 ICR mice (15-17 g, male, purchased from Institute of Laboratory Animal Sciences, CAMS & PUMC) were randomly divided into 10 groups (14 mice per group) as follows: paeoniflorin group at a dose of 100 mg/kg, paeoniflorin group at a dose of 50 mg/kg, paeoniflorin group at a dose of 25 mg/kg, paeoniflorin group at a dose of 12.5 mg/kg, albiflorin group at a dose of 28 mg/kg, albiflorin group at a dose of 14 mg/kg, albiflorin group at a dose of 7 mg/kg, normal saline control group, high-dose group of doxepin as a positive drug (25 mg/kg), and low-dose group of doxepin as a positive drug (1 mg/kg).

The test system of experiment [2] is ICR mice. The experiment is described as follows: Sleeping-inducing test of pentobarbital sodium at the subthreshold dose. The settings on record: 2 mg/kg, 14 days; pentobarbital sodium 35 mg/kg ip.
The subject of experiment [3] is ICR mice. The experiment is described as follows: Sleep-prolonging test of pentobarbital sodium at the suprathreshold dose. The conditions noted are these: 10 days, pentobarbital sodium 51 mg/kg ip. The protocol:
(§2) If the mice were kept in a supine position for more than 1 min, it would be considered that the righting reflex was disappeared in mice. After spontaneously rolling over, the mice were immediately placed in a supine position. If the mice could roll over within 1 min, it would be considered that the righting reflex was recovered. The time of the righting reflex being disappeared and recovered in mice were recorded. The period from the mice being intraperitoneally injected with pentobarbital sodium until the righting reflex being disappeared in mice was recorded as sleep latency. The period from the righting reflex being disappeared in mice until the righting reflex being recovered in mice was recorded as sleep duration. The sleep duration of more than 5 min in mice was considered as being asleep.
The mice were administered with drugs for consecutive 10 days. 1 h after the last administration, the mice were intraperitoneally injected with the suprathreshold dose of pentobarbital sodium (51 mg/kg, 0.1 ml/10 g). The righting reflex being disappeared and recovered in mice were observed, and the time of the righting reflex being disappeared and recovered in mice were recorded. The evaluation criteria of sleep latency, sleep duration and sleep rate were the same as those in Section 7.2.1.

Experiment [4] deals with ICR mice. The experiment is described as follows: Sleeping-inducing test of pentobarbital sodium at the subthreshold dose. The settings on record: 14 days, pentobarbital sodium 35 mg/kg ip. The procedure:
as §1, §2
The mice were administered with drugs for consecutive 14 days. 1 h after the last administration, the mice were intraperitoneally injected with the subthreshold dose of pentobarbital sodium (35 mg/kg, 0.1 ml/10 g). The righting reflex being disappeared and recovered in mice were observed, and the time of the righting reflex being disappeared and recovered in mice were recorded. The evaluation criteria of sleep latency, sleep duration and sleep rate were the same as those in Section 7.2.1.

In another experiment the test system is 5-HT1A receptor. The experiment is described as follows: mRNA expression of 5-HT1A receptor in hippocampus of chronic stress rats (RT-PCR). The conditions noted are these: 2.5 mg/kg/d, 21 days. The protocol: After having free access to food and being deprived water for 24 h, 72 normal rats were administered with 1% sucrose aqueous solution, and measured the consumption within 1 h. According to the consumption of sucrose aqueous solution, the rats were randomly divided into six groups, 12 […] per group, i.e. normal control group, model group, positive drug Prozac group (2.5 mg/kg/d), high-dose group (70 mg/kg/d, comprising 11.2 mg of albiflorin), medium-dose group (35 mg/kg/d, comprising 5.6 mg of albiflorin), and low-dose group (17.5 mg/kg/d, comprising 2.8 mg of albiflorin) of Paeonia lactiflora Pall extract. When being modeled, the rats were simultaneously administered with drugs, once a day, for consecutive 21 days. […]
According to the instruction of TRIzol reagent, the total RNAs were extracted by one-step guanidine-isothiocyanate method. The integrity of the extracted total RNAs was confirmed by 0.9% agarose gel electrophoresis, and the content and purity of RNA were determined by UV spectrophotometer. […]
30 μl of 5-HT1A-R-amplified product and 10 μl of Actin-amplified product were mixed, and then subjected to 1.5% agarose gel electrophoresis. […] The ratio of IOD5-HTR/IODActin was the relative quantification of the amplified products, and the intergroup comparisons were carried out.

In the case of `CN1C(=O)CN=C(c2ccccc2)c2cc(Cl)ccc21` [Diazepam], the “Times of Returning from Dark Box back to Light Box” value in the experiment on KM mice stood at 13.6 ± 3.35. For the same molecule, the “Times of Spontaneous Action” value in the experiment with ICR mice [1] (2 mg/kg) was 301.85 ± 103.11. Also, in the experiment with ICR mice [2], the “Number of Sleeping Mice/Group” value came to 12 and the “Sleep Rate” value is given as 12/13*.
As for `CN(C)CCC=C1c2ccccc2COc2ccccc21.Cl` [Doxepin, Doxepin Hydrochloride], in the experiment with ICR mice [3] (1 mg/kg), the “Sleep Duration” value is given as 74.91 ± 16.55 min and the “Sleep Latency” value stood at 4.38 ± 1.60 min. Further, in the experiment with ICR mice [3] (25 mg/kg), the “Sleep Duration” value stood at 63.60 ± 12.09 min and the “Sleep Latency” value was 4.72 ± 2.40 min. Further, in the experiment on ICR mice [4] (1 mg/kg), the “Number of Sleeping Mice/Group” value is 1 and the “Sleep Rate” value was 1/12. For the same molecule, in the experiment with ICR mice [1] (1 mg/kg), the “Times of Spontaneous Action” value turned out to be 420.50 ± 110.28.
With `C[C@@]12C[C@@]3(O)O[C@@H](O1)[C@]1(COC(=O)c4ccccc4)[C@H]3C[C@@]12O[C@@H]1O[C@H](CO)[C@@H](O)[C@H](O)[C@H]1O` [Paeoniflorin, paeoniflorin], the “Sleep Duration” value with ICR mice [3] (12.5 mg/kg) stood at 74.57 ± 13.02 min; with ICR mice [3] (25 mg/kg), 68.64 ± 19.23 min; in the experiment with ICR mice [3] (50 mg/kg) it was 73.70 ± 27.88 min; with ICR mice [3] (100 mg/kg), 72.98 ± 20.83 min. In addition, the “Sleep Latency” value amounted to 4.11 ± 1.52 min in the experiment on ICR mice [3] (12.5 mg/kg), 4.96 ± 2.18 min in the experiment with ICR mice [3] (25 mg/kg), 5.17 ± 1.37 min in the experiment with ICR mice [3] (50 mg/kg) and 28.10 ± 44.63 min with ICR mice [3] (100 mg/kg). The “Number of Sleeping Mice/Group” value is reported as 2 in the experiment with ICR mice [4] (12.5 mg/kg), 4 with ICR mice [4] (25 mg/kg), 5 in the experiment with ICR mice [4] (50 mg/kg) and 3 with ICR mice [4] (100 mg/kg). Besides, the “Sleep Rate” value in the experiment on ICR mice [4] (12.5 mg/kg) was 2/13; in the experiment on ICR mice [4] (25 mg/kg), 1/3; in the experiment with ICR mice [4] (50 mg/kg) it was 5/12; in the experiment on ICR mice [4] (100 mg/kg) it was 3/11. For the same molecule, the “Times of Spontaneous Action” value was 456.71 ± 93.95 with ICR mice [1] (12.5 mg/kg), 468.71 ± 73.56 in the experiment on ICR mice [1] (25 mg/kg), 503.00 ± 137.04 in the experiment on ICR mice [1] (50 mg/kg) and 434.45 ± 76.43 with ICR mice [1] (100 mg/kg).
With `CNCCC(Oc1ccc(C(F)(F)F)cc1)c1ccccc1` (centres unmarked) [Positive Drug, fluoxetine hydrochloride], the “mRNA expression of 5-HT1A receptor (ratio IOD5-HTR/IODActin)” value in the experiment on 5-HT1A receptor was 0.63 ± 0.21.
